The source of these data is US20120115852A1, “HETEROCYCLIC COMPOUNDS AS AUTOTAXIN INHIBITORS” (Merck Patent Gesellschaft Mit Beschrankter Haftung, priority 2009, published 2012).

This experiment addresses T1, recombinant autotaxin (Homo sapiens, UniProt Q13822).
T1 construct: made in house; host or cells: Hi5 insect cells (baculovirus)
The experiment in a line: Autotaxin test (enzyme test), Amplex Red fluorescence with LPC substrate. The conditions noted are these: autotaxin inhibition (enzyme test); for remaining activity at 10 µM: 10 μM compound, read-out: % Control at 10 μM. Format: biochemical. The protocol: Autotaxin Inhibition (Enzyme Test)
Autotaxin Test (Enzyme Test)
The autotaxin activity is measured indirectly using Amplex Red reagent. Amplex Red is measured here as fluorogenic indicator for the H2O2 formed. In detail, autotaxin converts the substrate lysophosphatidylcholine (LPC) into phosphocholine and lysophosphatidylic acid (LPA). After this reaction, the phosphocholine is reacted with alkaline phosphatase to give inorganic phosphate and choline. In the next step, choline is oxidised by choline oxidase to give betaine, with formation of H2O2. H2O2 reacts with Amplex Red reagent in the presence of peroxidase (horseradish peroxidase) in a 1:1 stoichiometry and forms the highly fluorescent resorufin. The fluorescence is measured in a reaction-dependent kinetic mode in order that fluorescent signals from possible other fluorescent substances which are not involved in the reaction can be corrected out.
3 μl of a standard solution or of the test substances (substances with the name A(n)) in individual concentrations dissolved in 20 mM Hepes pH 7.2 with a maximum of 11% of DMSO are pre-incubated together with 20 μl (19 ng) of highly purified recombinant autotaxin in test buffer in a black microtitre plate provided with 384 wells at 22° C. for 30 min. The reaction is then initiated by addition of 10 μl of L-α-lysophosphatidylcholine (LPC), where the final concentration of LPC is 75 μM. The mixture is incubated at 37° C. for 90 min. After the incubation, Amplex Red reagent, peroxidase (horseradish peroxidase) and choline oxidase is added, and the fluorescence is immediately measured at 612 nm with excitation of 485 nm in a “Tecan Ultra multimode” reader. The activity of autotaxin is calculated indirectly via detection of the H2O2 formed.
• Microtitre plate: PS microplate, 384 wells, small volume, black Corning, Cat#3677 • Protein: recombinant autotaxin (Baculovirale Hi5 Expression) • Substrate: L-α-lysophosphatidylcholine (chicken egg)); Avanti Polar Lipids #830071 P • Standard: C14 LPA, Avanti Polar Lipids, Cat#857120P • Detection reagent: Amplex Red reagent; Invitrogen #A12222; 5 mg dissolved in 1.923 ml of DMSO peroxidase type VI-A (horseradish) from Sigma #P6782; 5 mg dissolved in 7.45 ml of test buffer, choline oxidase; Sigma # C5896; 50 U dissolved in 2.47 ml of test buffer • Detection reagent mix: 1:50 dilution of detection reagent in test buffer • Test buffer: 10 mM Tris HCl, Merck, Cat #1.08219, pH 8, 1 mM; CaCl2×2 H2O, Merck #1.02382

Molecules are shown by their SMILES.

The term IC50 denotes the concentration that inhibits the measured activity by half. On to `CC(C)(C)CC(=O)N1CCN2C(=O)c3cc(-c4ccc(Cl)cc4F)ccc3NC(=O)C2C1` (centres unmarked) [Compound 10, 7-(4-chloro-2-fluorophenyl)-2-(3,3-dimethylbutyryl)-1,3,4,11a-tetrahydro-2H,10H-2,4a,10-triazadibenzo[a,d]cycloheptene-5,11-dione], for which the remaining activity at 10 µM came out at 1% and the half-maximal inhibitory concentration (IC50) fell in the range of 100 to 1000 nM.

Regarding `CC(C)(C)CC(=O)N1CCN2Cc3cc(-c4ccccc4F)ccc3NCC2C1` (centres unmarked) [Compound 25, 1-[7-(2-fluorophenyl)-3,4,5,10,11,11a-hexahydro-1H-2,4-a,10-triazadibenzo[a,d]cyclohepten-2-yl]-3,3-dimethylbutan-1-one], the remaining activity at 10 µM worked out at 53% and the half-inhibitory concentration (IC50) was greater than 1000 nM.

Regarding `CC(C)(C)CC(=O)N1CCN2Cc3cc(-c4ccccc4F)ccc3NC(=O)C2C1` (centres unmarked) [Compound 26, 2-(3,3-dimethylbutyryl)-7-(2-fluorophenyl)-1,3,4,5,10,11a-hexahydro-2H-2,4-a,10-triazadibenzo[a,d]cyclohepten-11-one], the remaining activity at 10 µM is 73% and the concentration for half-maximal inhibition (IC50) is greater than 1000 nM.

For `O=C1Nc2ccc(-c3ccc(Cl)cc3)cc2C(=O)N2CCN(C(=O)OCc3ccccc3)CC12` (centres unmarked) [Compound 40, Benzyl 7-(4-chlorophenyl)-5,11-dioxo-3,4,5,10,11,11a-hexahydro-1H-2,4a,10-triazadibenzo[a,d]cycloheptene-2-carboxylate], the remaining activity at 10 µM amounted to 22% and the IC50 was greater than 1000 nM.

As for `O=C1Nc2ccc(-c3ccc(Cl)cc3F)cc2C(=O)N2CCN(C(=O)n3ccnc3)C[C@H]12` [Compound 41, (R)-7-(4-Chloro-2-fluorophenyl)-2-(imidazole-1-carbonyl)-1,3,4,11a-tetrahydro-2H,10H-2,4a,10-triazadibenzo[a,d]cycloheptene-5,11-dione], the remaining activity at 10 µM turned out to be 48% and the half-inhibitory concentration (IC50) is greater than 1000 nM.

Take `CC(C)(C)[C@H](NC1CCNCC1)C(=O)N1CCN[C@@H](C(=O)Nc2ccc(-c3ccc(Cl)cc3F)cc2C(=O)O)C1` [Compound 47, 4′-chloro-4-({(R)-4-[(S)-3,3-dimethyl-2-(piperidin-4-ylamino)-butyryl]piperazine-2-carbonyl}amino)-2′-fluorobiphenyl-3-carboxylic acid]: the remaining activity at 10 µM came out at 8% and the concentration for half-maximal inhibition (IC50) was in the range of 100 to 1000 nM.

With `CC(C)(C)[C@H](NC1CCNCC1)C(=O)N1CCN2C(=O)c3cc(-c4ccc(Cl)cc4F)ccc3NC(=O)[C@H]2C1` [Compound 48, (R)-7-(4-Chloro-2-fluorophenyl)-2-[(S)-3,3-dimethyl-2-(piperidin-4-ylamino)butyryl]-1,3,4,11a-tetrahydro-2H,10H-2,4a,10-triazadibenzo[a,d]cycloheptene-5,11-dione], the remaining activity at 10 µM is 2% and the IC50 is 100 to 1000 nM.

As to `CC(C)(C)[C@H](O)C(=O)N1CCN2Cc3cc(-c4ccc(Cl)cc4)ccc3NC(=O)C2C1` (stereo partly drawn) [Compound 57, 7-(4-Chlorophenyl)-2-((S)-2-hydroxy-3,3-dimethylbutyryl)-1,3,4,5,10,11a-hexahydro-1H-2,4a,10-triazadibenzo[a,d]cyclohepten-11-one], the remaining activity at 10 µM came out at 40% and the IC50 was greater than 1000 nM.

Turning to `O=C1Nc2ccc(-c3ccc(Cl)cc3)cc2C(=O)N2CCN(C(=O)[C@@H](O)c3ccccc3)C[C@H]12` [Compound A1, (R)-7-(4-Chlorophenyl)-2-((S)-2-hydroxy-2-phenylacetyl)-1,3,4,11a-tetrahydro-2H,10H-2,4a,10-triazadibenzo[a,d]cycloheptene-5,11-dione], the IC50 was greater than 1000 nM.

In the case of `O=C1Nc2ccc(-c3cccs3)cc2C(=O)N2CCN(C(=O)[C@@H](O)c3ccccc3)C[C@H]12` [Compound A3, (R)-2-((S)-2-Hydroxy-2-phenylacetyl)-7-thiophen-2-yl-1,3,4,11a-tetrahydro-2H,10H-2,4a,10-triaza-dibenzo[a,d]cycloheptene-5,11-dione], the remaining activity at 10 µM is 86%.

Regarding `NC(=O)C(=O)N1CCN2C(=O)c3cc(-c4ccco4)ccc3NC(=O)[C@H]2C1` [Compound A4, 2-((R)-7-Furan-2-yl-5,11-dioxo-3,4,5,10,11,11a-hexahydro-1H-2,4a,10-triazadibenzo[a,d]cyclo-hepten-2-yl)-2-oxoacetamide], the remaining activity at 10 µM stood at 75%.

`O=C1Nc2ccc(-c3ccc(Cl)cc3)cc2C(=O)N2CCN(C(=O)[C@@H]3CSCN3)C[C@H]12` [Compound A5, (R)-7-(4-Chlorophenyl)-2-((R)-thiazolidine-4-carbonyl)-1,3,4,11a-tetrahydro-2H,10H-2,4a,10-triazadibenzo[a,d]cycloheptene-5,11-dione]: the half-maximal inhibitory concentration (IC50) was greater than 1000 nM.

As for `O=C1Nc2ccc(-c3ccco3)cc2C(=O)N2CCN(C(=O)CO)C[C@H]12` [Compound A6, (R)-7-Furan-2-yl-2-(2-hydroxyacetyl)-1,3,4,11a-tetrahydro-2H,10H-2,4a,10-triazadibenzo[a,d]-cycloheptene-5,11-dione], the remaining activity at 10 µM amounted to 73%.

As to `CC(C)(C)CC(=O)N1CCN2C(=O)c3cc(-c4ccccc4F)ccc3NC(=O)[C@H]2C1` [Compound A7, (R)-2-(3,3-Dimethylbutyryl)-7-(2-fluorophenyl)-1,3,4,11a-tetrahydro-2H,10H-2,4a,10-triaza-dibenzo[a,d]cycloheptene-5,11-dione], the IC50 is greater than 1000 nM.

Consider `O=C1Nc2ccc(-c3cccs3)cc2C(=O)N2CCN(C(=O)CO)C[C@H]12` [Compound A8, (R)-2-(2-Hydroxyacetyl)-7-thiophen-2-yl-1,3,4,11a-tetrahydro-2H,10H-2,4a,10-triazadibenzo[a,d]-cycloheptene-5,11-dione], for which the remaining activity at 10 µM is 67%.

Consider `CN(C)c1ccc(C(=O)N2CCN3C(=O)c4cc(-c5ccc(Cl)cc5)ccc4NC(=O)[C@H]3C2)cc1` [Compound A9, (R)-7-(4-Chlorophenyl)-2-(4-dimethylamino-benzoyl)-1,3,4,11a-tetrahydro-2H,10H-2,4a,10-triazadibenzo[a,d]cycloheptene-5,11-dione], for which the remaining activity at 10 µM turned out to be 84%.

As to `O=C1Nc2ccc(-c3ccccc3F)cc2C(=O)N2CCN(C(=O)[C@@H]3CSCN3)C[C@H]12` [Compound A10, (R)-7-(2-Fluorophenyl)-2-((R)-thiazolidine-4-carbonyl)-1,3,4,11a-tetrahydro-2H,10H-2,4a,10-triazadibenzo[a,d]cycloheptene-5,11-dione], the remaining activity at 10 µM worked out at 34% and the half-inhibitory concentration (IC50) was greater than 1000 nM.

Regarding `COc1ccc(-c2ccc3c(c2)C(=O)N2CCN(C(=O)c4cccc(F)c4)C[C@@H]2C(=O)N3)cc1` [Compound A11, (R)-2-(3-Fluorobenzoyl)-7-(4-methoxyphenyl)-1,3,4,11a-tetrahydro-2H,10H-2,4a,10-triaza-dibenzo[a,d]cycloheptene-5,11-dione], the remaining activity at 10 µM was determined as 69%.

As to `O=C1Nc2ccc(-c3ccccc3F)cc2C(=O)N2CCN(C(=O)[C@@H]3CSCN3)CC12` (stereo partly drawn) [Compound A12, 7-(2-Fluorophenyl)-2-((R)-thiazolidine-4-carbonyl)-1,3,4,11a-tetrahydro-2H,10H-2,4a,10-triaza-dibenzo[a,d]cycloheptene-5,11-dione], the IC50 is greater than 1000 nM.

Take `CC(C)(C)CC(=O)N1CCN2C(=O)c3cc(-c4ccccc4F)ccc3NC(=O)C2C1` (centres unmarked) [Compound A13, 2-(3,3-Dimethylbutyryl)-7-(2-fluorophenyl)-1,3,4,11a-tetrahydro-2H,10H-2,4a,10-triaza-dibenzo[a,d]cycloheptene-5,11-dione]: the 50% inhibitory concentration (IC50) is greater than 1000 nM.
